From PMC5421785, “Citrullination only infrequently impacts peptide binding to HLA class II MHC” (PLoS ONE, 2017)
Where two headings read alike, the source gives them in different places. Square brackets hold non-standard residues; d marks the D form. Peptide text beside a SMILES is read from it. Cit = NC(=O)NCCC[C@H](N)C(=O)O

Assays:
[1] = molecular target: T1, HLA-DRB1*04:01 (Homo sapiens, UniProt P01903+P01911, A100K/A169T/F76Y/I96L/K127E/L162R/M171V/N62H/P40V/Q125Y/R42H/S133A/S149N/S66Y/V115G/V209L/W38E); test: HLA class II peptide binding, inhibition of radiolabeled peptide binding to purified MHC
T1 construct: EBV transformed homozygous cell lines were used as sources of MHC molecules; endogenous in cells; host or cells: EBV transformed homozygous cell lines

[2] = molecular target: T2, HLA-DRB1*01:01 (Homo sapiens, UniProt P01903+P01911, A100R/D57E/F55L/F60I/F76Y/I96L/L162R/M171V/P40L/Q125E/R42F/V115G/Y59C); test: as above
T2 construct: EBV transformed homozygous cell lines were used as sources of MHC molecules; endogenous in cells; host or cells: EBV transformed homozygous cell lines

[3] = citrullinated 15-mer peptide (X = citrulline), purified HLA-DRB1*04:01, read-out: DRB1*04:01 binding capacity, Cit peptide (IC50 nM)
[4] = citrullinated 15-mer peptide (X = citrulline), purified HLA-DRB1*01:01, read-out: DRB1*01:01 binding capacity, Cit peptide (IC50 nM)
[5] = citrullinated 15-mer (X), purified MHC, inhibition of radiolabeled peptide binding, dash = IC50 >40,000 nM, read-out: DRB1*04:01 binding capacity, Cit peptide (IC50 nM)
[6] = citrullinated 15-mer (X), purified MHC, inhibition of radiolabeled peptide binding, dash = IC50 >40,000 nM, read-out: DRB1*01:01 binding capacity, Cit peptide (IC50 nM)

Compound	IC50 [1, 3] [nM]	IC50 [2, 4] [nM]	IC50 [1, 5] [nM]	IC50 [2, 6] [nM]	also measured
CC[C@H](C)[C@H](NC(=O)[C@@H](N)CCC(=O)O)C(=O)N[C@@H](C)C(=O)N[C@H](C(=O)N[C@@H](Cc1ccc(O)cc1)C(=O)N[C@@H](CCCNC(N)=O)C(=O)N[C@@H](CCCCN)C(=O)N[C@@H](CC(C)C)C(=O)N[C@@H](CC(C)C)C(=O)N[C@@H](CCC(=O)O)C(=O)NCC(=O)N[C@@H](CCC(=O)O)C(=O)N[C@@H](CCC(=O)O)C(=O)N[C@@H](CO)C(=O)N[C@@H](CCCNC(=N)N)C(=O)O)[C@@H](C)O [EIATYXKLLEGEESR] (H-EIATY[Cit]KLLEGEESR-OH)	3810	360			
CC[C@H](C)[C@H](NC(=O)[C@H](Cc1ccc(O)cc1)NC(=O)[C@H](CC(N)=O)NC(=O)[C@H](C)NC(=O)[C@H](Cc1ccccc1)NC(=O)[C@H](CCCNC(N)=O)NC(=O)[C@H](CC(=O)O)NC(=O)[C@H](CC(N)=O)NC(=O)[C@H](CC(C)C)NC(=O)[C@H](CCC(=O)O)NC(=O)[C@H](CCC(N)=O)NC(=O)[C@H](CC(C)C)NC(=O)[C@@H](N)CCC(=O)O)C(=O)N[C@@H](CC(=O)O)C(=O)N[C@@H](CCCCN)C(=O)O [ELQELNDXFANYIDK]			26700	295	
CC(C)C[C@H](NC(=O)[C@H](CCC(N)=O)NC(=O)[C@H](CC(=O)O)NC(=O)[C@@H](NC(=O)[C@H](CCC(N)=O)NC(=O)[C@H](CCCNC(=N)N)NC(=O)[C@H](CCCNC(=N)N)NC(=O)[C@H](CC(C)C)NC(=O)[C@@H](N)CCC(=O)O)C(C)C)C(=O)N[C@H](C(=O)N[C@@H](CC(N)=O)C(=O)N[C@@H](CC(=O)O)C(=O)N[C@@H](CCCCN)C(=O)N[C@@H](C)C(=O)N[C@@H](CCCNC(N)=O)C(=O)O)[C@@H](C)O [ELRRQVDQLTNDKAX] (H-ELRRQVDQLTNDKA[Cit]-OH)			8090	1160	
CC(C)C[C@H](NC(=O)[C@H](CCC(N)=O)NC(=O)[C@H](CC(=O)O)NC(=O)[C@@H](NC(=O)[C@H](CCC(N)=O)NC(=O)[C@H](CCCNC(N)=O)NC(=O)[C@H](CCCNC(=N)N)NC(=O)[C@H](CC(C)C)NC(=O)[C@@H](N)CCC(=O)O)C(C)C)C(=O)N[C@H](C(=O)N[C@@H](CC(N)=O)C(=O)N[C@@H](CC(=O)O)C(=O)N[C@@H](CCCCN)C(=O)N[C@@H](C)C(=O)N[C@@H](CCCNC(=N)N)C(=O)O)[C@@H](C)O [ELRXQVDQLTNDKAR] (H-ELR[Cit]QVDQLTNDKAR-OH)			11000	2240	
CC(C)C[C@H](NC(=O)[C@H](CCC(N)=O)NC(=O)[C@H](CC(=O)O)NC(=O)[C@@H](NC(=O)[C@H](CCC(N)=O)NC(=O)[C@H](CCCNC(=N)N)NC(=O)[C@H](CCCNC(N)=O)NC(=O)[C@H](CC(C)C)NC(=O)[C@@H](N)CCC(=O)O)C(C)C)C(=O)N[C@H](C(=O)N[C@@H](CC(N)=O)C(=O)N[C@@H](CC(=O)O)C(=O)N[C@@H](CCCCN)C(=O)N[C@@H](C)C(=O)N[C@@H](CCCNC(=N)N)C(=O)O)[C@@H](C)O [ELXRQVDQLTNDKAR] (H-EL[Cit]RQVDQLTNDKAR-OH)			13400	614	
CSCC[C@H](NC(=O)[C@@H]1CCCN1C(=O)CNC(=O)[C@@H]1CCCN1C(=O)[C@H](CO)NC(=O)CNC(=O)[C@H](CC(N)=O)NC(=O)[C@@H](N)CCC(=O)O)C(=O)NCC(=O)N1CCC[C@H]1C(=O)N[C@@H](CCCNC(N)=O)C(=O)NCC(=O)N[C@@H](CC(C)C)C(=O)N1CCC[C@H]1C(=O)NCC(=O)O [ENGSPGPMGPXGLPG] (H-ENGSPGPMGP[Cit]GLPG-OH)	> 40000	31400			
CC(C)C[C@H](NC(=O)[C@H](CCCNC(N)=O)NC(=O)[C@H](CO)NC(=O)[C@H](CCCCN)NC(=O)CNC(=O)[C@H](CCC(N)=O)NC(=O)CNC(=O)[C@H](CCCCN)NC(=O)[C@H](CC(C)C)NC(=O)[C@H](CCC(N)=O)NC(=O)[C@@H](N)CCC(=O)O)C(=O)NCC(=O)N[C@@H](CC(=O)O)C(=O)N[C@@H](CC(C)C)C(=O)N[C@@H](Cc1ccc(O)cc1)C(=O)O [EQLKGQGKSXLGDLY]			> 40000	5380	
C[C@H](NC(=O)CNC(=O)[C@H](C)NC(=O)[C@@H]1CCCN1C(=O)CNC(=O)[C@@H](NC(=O)[C@H](CCCNC(=N)N)NC(=O)CNC(=O)[C@H](CCCNC(=N)N)NC(=O)[C@@H](N)CCC(=O)O)[C@@H](C)O)C(=O)N[C@@H](C)C(=O)NCC(=O)N[C@@H](C)C(=O)N[C@@H](CCCNC(N)=O)C(=O)NCC(=O)O [ERGRTGPAGAAGAXG] (H-ERGRTGPAGAAGA[Cit]G-OH)	> 40000	1120			
C[C@H](NC(=O)CNC(=O)[C@H](C)NC(=O)[C@@H]1CCCN1C(=O)CNC(=O)[C@@H](NC(=O)[C@H](CCCNC(N)=O)NC(=O)CNC(=O)[C@H](CCCNC(=N)N)NC(=O)[C@@H](N)CCC(=O)O)[C@@H](C)O)C(=O)N[C@@H](C)C(=O)NCC(=O)N[C@@H](C)C(=O)N[C@@H](CCCNC(=N)N)C(=O)NCC(=O)O [ERGXTGPAGAAGARG] (H-ERG[Cit]TGPAGAAGARG-OH)	> 40000	3910			
CSCC[C@H](NC(=O)[C@H](CCC(=O)O)NC(=O)[C@H](CCCNC(N)=O)NC(=O)[C@H](CCSC)NC(=O)[C@H](CCC(N)=O)NC(=O)[C@H](CCCNC(=N)N)NC(=O)[C@@H](N)CCC(=O)O)C(=O)N[C@@H](CCC(=O)O)C(=O)N[C@@H](CCC(=O)O)C(=O)N[C@@H](CC(N)=O)C(=O)N[C@@H](Cc1ccccc1)C(=O)N[C@@H](C)C(=O)N[C@H](C(=O)N[C@@H](CCC(=O)O)C(=O)N[C@@H](C)C(=O)O)C(C)C [ERQMXEMEENFAVEA] (H-ERQM[Cit]EMEENFAVEA-OH)	3220	9530			
CC(C)C[C@H](NC(=O)CNC(=O)[C@@H]1CCCN1C(=O)[C@H](Cc1ccccc1)NC(=O)CNC(=O)[C@H](CCCNC(N)=O)NC(=O)[C@@H](N)CCC(=O)O)C(=O)N1CCC[C@H]1C(=O)NCC(=O)N1CCC[C@H]1C(=O)N[C@@H](CO)C(=O)NCC(=O)N[C@@H](CCC(=O)O)C(=O)N1CCC[C@H]1C(=O)NCC(=O)O [EXGFPGLPGPSGEPG] (H-E[Cit]GFPGLPGPSGEPG-OH)	> 40000	2210			
CC(C)C[C@H](NC(=O)CNC(=O)[C@H](CCCNC(N)=O)NC(=O)[C@@H](N)CCC(=O)O)C(=O)N[C@@H](CCCCN)C(=O)NCC(=O)N[C@@H](Cc1c[nH]cn1)C(=O)N[C@@H](CCCNC(=N)N)C(=O)NCC(=O)N[C@@H](Cc1ccccc1)C(=O)N[C@H](C(=O)NCC(=O)N[C@@H](CC(C)C)C(=O)N[C@@H](CCC(N)=O)C(=O)NCC(=O)O)[C@@H](C)O [EXGLKGHRGFTGLQG] (H-E[Cit]GLKGHRGFTGLQG-OH)	> 40000	96			
C[C@H](NC(=O)CNC(=O)[C@H](C)NC(=O)[C@@H]1CCCN1C(=O)CNC(=O)[C@@H](NC(=O)[C@H](CCCNC(=N)N)NC(=O)CNC(=O)[C@H](CCCNC(N)=O)NC(=O)[C@@H](N)CCC(=O)O)[C@@H](C)O)C(=O)N[C@@H](C)C(=O)NCC(=O)N[C@@H](C)C(=O)N[C@@H](CCCNC(=N)N)C(=O)NCC(=O)O [EXGRTGPAGAAGARG] (H-E[Cit]GRTGPAGAAGARG-OH)	> 40000	1620			
CC[C@H](C)[C@H](NC(=O)[C@H](CCC(=O)O)NC(=O)[C@H](CCC(=O)O)NC(=O)[C@H](CCC(N)=O)NC(=O)[C@H](CC(C)C)NC(=O)[C@H](CO)NC(=O)[C@H](CCC(=O)O)NC(=O)[C@@H](NC(=O)[C@H](CCCCN)NC(=O)[C@H](CCCNC(N)=O)NC(=O)[C@@H](N)CCC(=O)O)C(C)C)C(=O)N[C@@H](C)C(=O)N[C@@H](Cc1ccccc1)C(=O)N[C@@H](CC(C)C)C(=O)N[C@@H](CCCCN)C(=O)O [EXKVESLQEEIAFLK] (H-E[Cit]KVESLQEEIAFLK-OH)			> 40000	148	
CSCC[C@H](NC(=O)[C@H](CCC(=O)O)NC(=O)[C@H](CCCNC(=N)N)NC(=O)[C@H](CCSC)NC(=O)[C@H](CCC(N)=O)NC(=O)[C@H](CCCNC(N)=O)NC(=O)[C@@H](N)CCC(=O)O)C(=O)N[C@@H](CCC(=O)O)C(=O)N[C@@H](CCC(=O)O)C(=O)N[C@@H](CC(N)=O)C(=O)N[C@@H](Cc1ccccc1)C(=O)N[C@@H](C)C(=O)N[C@H](C(=O)N[C@@H](CCC(=O)O)C(=O)N[C@@H](C)C(=O)O)C(C)C [EXQMREMEENFAVEA] (H-E[Cit]QMREMEENFAVEA-OH)	1160	5960			
CC[C@H](C)[C@H](NC(=O)[C@H](CC(=O)O)NC(=O)[C@@H](NC(=O)[C@@H](NC(=O)[C@@H]1CCCN1C(=O)[C@H](CC(C)C)NC(=O)[C@H](CCCNC(N)=O)NC(=O)[C@H](CO)NC(=O)[C@@H](NC(=O)[C@H](CCCCN)NC(=O)[C@H](CCC(N)=O)NC(=O)[C@H](CO)NC(=O)[C@H](CCCNC(=N)N)NC(=O)[C@H](Cc1ccc(O)cc1)NC(=O)[C@@H](N)CCC(=O)O)[C@@H](C)O)[C@@H](C)CC)[C@@H](C)CC)C(=O)O [EYRSQKTSXLPIIDI] (H-EYRSQKTS[Cit]LPIIDI-OH)					IC50 ([1]; citrullinated peptide as listed (X at Cit position), read-out: DRB1*04:01 binding capacity Cit peptide (IC50 nM)): 316 nM; IC50 ([1]; value of the wild-type (non-citrullinated) counterpart of the listed peptide, read-out: DRB1*04:01 binding capacity WT peptide (IC50 nM)): 314 nM; IC50 ([2]; citrullinated peptide as listed (X at Cit position), read-out: DRB1*01:01 binding capacity Cit peptide (IC50 nM)): 6.9 nM; IC50 ([2]; value of the wild-type (non-citrullinated) counterpart of the listed peptide, read-out: DRB1*01:01 binding capacity WT peptide (IC50 nM)): 14 nM
